Results: patent publication US7652046B2, “Substituted thienopyrrole carboxylic acid amides, pyrrolothiazole carboxylic acid amides, and related analogs as inhibitors of casein kinase I” (Aventis Pharmaceuticals Inc., priority 2004, dated 2010)

Tests used:
Casein Kinase Iε = biological target: T1, Casein Kinase Iε (Homo sapiens, UniProt P49674); test: Casein Kinase Epsilon 33P-ATP Filter Plate Assay; type: biochemical
T1 construct: made in house
Text: Casein Kinase Epsilon ^33P-ATP Filter Plate Assay for Screening CKIε Inhibitors
Purpose: This assay measures the ability of compounds to inhibit the phosphorylation of the substrate casein by the enzyme casein kinase 1ε using an in vitro ^33P-ATP filtration assay. […] Materials:
Equipment: • Beckman Biomek 2000 Liquid Handling Robot • Beckman Multimek 96 Automated 96 Channel Pipettor • Millipore Vacuum Manifold Basic Kit # MAVM0960R • Titertek Multidrop Liquid Dispenser • Packard TopCount NXT Liquid Scintillation Counter
Enzyme: • Casein Kinase 1ε final concentration 0.58 mg/ml obtained from fermentation and purification processes as are well known to one skilled in the art. The above are stored as 100 μL aliquots at minus 80° C.
Compounds: • Supply compounds for testing as frozen 10 mM compound stock dissolved in 100% DMSO. Assay Conditions:
Final total assay volume per well is equal to 50 μL that one prepares as follows: • 5 μL of diluted compound stock (10, 1, 0.1, 0.01 or 0.001 μM), • 5 μL of dephosphorylated casein final concentration 0.2 μg/μL, • 20 μL of CK1ε final concentration 3 ng/μL, and • 20 μL of γ-^33P-ATP final concentration 0.02 μCi/μL mixed with cold ATP (10 μM final). Methodology: • 1. Prepare 500 mL of fresh assay buffer: 50 mM Tris pH 7.5, 10 mM MgCl2, 2 mM DTT and 1 mM EGTA • 2. Obtain compounds to be evaluated as 10 μL of 10 mM stock dissolved in 100% DMSO. Use a Biomek 2000 liquid handling robot, make serial dilutions to yield 10, 1, 0.1, 0.01 and 0.001 μM final compound dilutions added as 5 μL additions to Falcon U bottom plates. […] A routine screening assay will consist of 32 compounds, which equals 4 assay plates. • 3. Assay plate maps are set up according to the following pattern CK1ePlateMap.xls
• 4. Add 5 μL of compound as indicated, then add 5 μL of dephosphorylated casein (dissolved in distilled H20)(0.2 μg/μL) and 20 μL CK1ε (3 ng/μL) to the appropriate wells. • 5. Finally add 20 μL γ-^33P-ATP (0.02 μCi/μL)/10 μM cold ATP (equals approximately 2×10^6 CPM per well). • 6. Vortes the Falcon U-Bottom assay plate containing the above 50 μL reaction volume and then incubate at room temperature for 2 hours. • 7. At the end of 2 hours, stop the reaction by the addition of 65 μL of ice cold 2 mM cold ATP (made up in assay buffer) to the assay plates using a Beckman Multimek. • 8. At the same time add 25 μL 100% ice cold TCA made up in distilled H20 to a matching number of Millipore MAPH filter plates. • 9. Using a handheld 8-channel pipettor, transfer 100 μL of the reaction mixture from the Falcon U-Bottom Plate to the Millipore MAPH filter plates presoaked with TCA. • 10. Mix the Millipore MAPH filter plates gently and allow to sit at room temperature for at least 30 minutes to precipitate the proteins. • 11. After 30 minutes, place the filter plates on a Millipore vacuum manifold and filter at no more than 8 mm Hg as the MAPH filters tend to “air lock” at higher vacuum settings. • 12. Wash the filter plates sequentially and filter with 2×150 μL 20% TCA, 2×150 μL 10% TCA and 2×150 μL 5% TCA (total of 6 washes per plate/900 μL per well). • 13. Allow the plates to dry overnight at room temperature. The next day add 40 μL Packard Microscint-20 Scintillation Fluid per well using a Titertek Multidrop dispenser; seal the plates and count for 2 minutes/well in a Packard Topcount NXT Scintillation Counter (to provide CPM values/well). Calculation: • 1. Import Counts Per Minute (CPM) data into a proprietary data calculation and archiving database (Activity Base by IDBS version 5.0). • 2. Column 1 for each plate reflects total phosphorylation activity of the enzyme in the absence of any inhibiting compound and thus represents 100%. Column 12 reflects any nonspecific phosphorylation/retained radioactivity activity in the absence of inhibiting compound and enzyme.

[1] = tested on: Mper1-luc Rat-1 fibroblasts (P2C4); test: Cellular Circadian Assay (Mper1-luc reporter period lengthening); type: cell-based; conditions: effective concentration that induces a 1 hour lengthening of circadian period
Text: The assay consists of Rat-1 fibroblasts stably expressing a Mper1-luc construct, thus enabling the determination of the rhythmic activation of the Mper1 promoter in living cells by repeatedly estimating luciferase activity by monitoring light-output over several days. The repeated measure format of the assay permits accurate and reproducible assessment of the concentration-dependent effects of CKIε inhibitors on circadian rhythm and provides the nexus for relating CKIε inhibition to circadian period alteration.
Cellular Circadian Assay Experimental Procedures
Stable transfection: Co-transfect Rat-1 fibroblast cultures at 30-50% confluence with vectors containing the Zeocin resistance selectable marker for stable transfection and an mPer-1 promoter-driven luciferase reporter gene. After 24-48 hours, split the cultures onto 96 well plates and maintain in growth media supplemented with 50-100 μg/mL Zeocin (Invitrogen #45-0430) for 10-14 days. Assess Zeocin-resistant stable transfectants for reporter expression by supplementing growth media with 100 μM luciferin (Promega #E1603) and assaying luciferase activity on a TopCount scintillation counter (Packard Model #C384V00). […] Select Mper1-luc Rat-1 fibroblasts clone P2C4 for compound testing. […] After synchronization, rinse cultures with 100 μL EMEM (Cellgro #10-010-CV) for 10 minutes at room temperature. […] Add compounds to be tested for circadian effects to CO2-independent media in 0.3% DMSO (final concentration). […] Estimate in vivo luciferase activity by measuring relative light output on a TopCount scintillation counter (Packard Model #C384V00). Transfer plates from incubator to reader using an ORCA robotic arm (Beckman Instruments) and SAMI-NT automated scheduling software (Version 3.3; SAGIAN/Beckman Instruments). Data Analysis: Use Microsoft Excel and XLfit (Version 2.0.9; IDBS) to import, manipulate and graph data. Perform period analysis either by determining the interval between relative light output minima over several days or by Fourier Transform. […] Analyze the data by fitting a hyperbolic curve to the data expressed as period change (y-axis) versus the concentration of test compound (x-axis) in XLfit and interpolate the EC[…]t+1h from this curve.

T1 sequence (P49674 whole entry): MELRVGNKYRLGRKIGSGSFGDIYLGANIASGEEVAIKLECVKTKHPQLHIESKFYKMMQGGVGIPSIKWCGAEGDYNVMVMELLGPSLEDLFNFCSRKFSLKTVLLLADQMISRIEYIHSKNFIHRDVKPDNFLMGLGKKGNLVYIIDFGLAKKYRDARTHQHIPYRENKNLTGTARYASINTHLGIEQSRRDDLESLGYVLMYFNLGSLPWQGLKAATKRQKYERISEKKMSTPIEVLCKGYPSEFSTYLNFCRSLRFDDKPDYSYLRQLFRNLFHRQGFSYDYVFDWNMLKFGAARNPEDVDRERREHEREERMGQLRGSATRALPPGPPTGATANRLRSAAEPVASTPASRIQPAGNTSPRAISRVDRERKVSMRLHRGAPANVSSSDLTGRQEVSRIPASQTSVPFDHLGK

With `NC(=O)c1[nH]c2sccc2c1Sc1ccccc1` [IIb, 4-(phenylsulfanyl)-6H-thieno[2,3-b]pyrrole-5-carboxylic acid amide] the Ki (Casein Kinase Iε) was 811 nM and the “Cell Assay ECΔτ1h” value [1] was 0.874 µM.
For `NC(=O)c1[nH]c2sccc2c1Sc1cccc(Br)c1` [IIg, 4-(3-Bromophenyl-sulfanyl)-6H-thieno[2,3-b]pyrrole-5-carboxylic acid amide], the Ki (Casein Kinase Iε) was 30.6 nM and the “Cell Assay ECΔτ1h” value [1] was 2.492 µM.
`Cc1nc2c(Sc3cccc(F)c3)c(C(N)=O)[nH]c2s1` [IIn, 6-(3-Fluorophenyl-sulfanyl)-2-methyl-4H-pyrrolo[3,2-d]thiazole-5-carboxylic acid amide] was tested, and the Ki (Casein Kinase Iε) was 15.9 nM and the “Cell Assay ECΔτ1h” value [1] was 0.998 µM.
With `Cc1nc2c(Sc3cccc(Cl)c3)c(C(N)=O)[nH]c2s1` [IIo, 6-(3-Chlorophenyl-sulfanyl)-2-methyl-4H-pyrrolo[3,2-d]thiazole-5-carboxylic acid amide] the Ki (Casein Kinase Iε) was 9.6 nM and the “Cell Assay ECΔτ1h” value [1] was 0.662 µM.
With `NC(=O)c1[nH]c2scnc2c1Sc1ccccc1` [IIs, 6-Phenylsulfanyl-4H-pyrrolo[3,2-d]thiazole-5-carboxylic acid amide] the Ki (Casein Kinase Iε) was 47 nM and the “Cell Assay ECΔτ1h” value [1] was 1.155 µM.
With `COc1cccc(Sc2c(C(N)=O)[nH]c3scnc23)c1` [IIt, 6-(3-Methoxyphenyl-sulfanyl)-4H-pyrrolo[3,2-d]thiazole-5-carboxylic acid amide] the Ki (Casein Kinase Iε) was 22 nM and the “Cell Assay ECΔτ1h” value [1] was 1.974 µM.
With `NC(=O)c1[nH]c2ccsc2c1Sc1ccccc1N` [Id, 6-(2-Aminophenyl-sulfanyl)-4H-thieno[3,2-b]pyrrole-5-carboxylic acid amide] the Ki (Casein Kinase Iε) was 110 nM and the “Cell Assay ECΔτ1h” value [1] was over 30 µM.
